Reference: patent US10300000B2, “Inhibition of melanogenesis by chemically modified curcumins” (The Research Foundation for The State University of New York, priority 2016, dated 2019)
Like-named read-outs stand apart in the source and are kept apart here.

Columns and labels:
[1] = target: T1, intracellular tyrosinase in B16F10 cells (Mus musculus, UniProt P11344); experiment: Recovery study of intracellular tyrosinase activity in B16F10 cells; type: cell-based; conditions: for tyrosinase activity after removal of compound: 2 day recovery post 2 day exposure
T1 construct: endogenous in cells; host or cells: B16F10
T1 sequence (P11344 19-533): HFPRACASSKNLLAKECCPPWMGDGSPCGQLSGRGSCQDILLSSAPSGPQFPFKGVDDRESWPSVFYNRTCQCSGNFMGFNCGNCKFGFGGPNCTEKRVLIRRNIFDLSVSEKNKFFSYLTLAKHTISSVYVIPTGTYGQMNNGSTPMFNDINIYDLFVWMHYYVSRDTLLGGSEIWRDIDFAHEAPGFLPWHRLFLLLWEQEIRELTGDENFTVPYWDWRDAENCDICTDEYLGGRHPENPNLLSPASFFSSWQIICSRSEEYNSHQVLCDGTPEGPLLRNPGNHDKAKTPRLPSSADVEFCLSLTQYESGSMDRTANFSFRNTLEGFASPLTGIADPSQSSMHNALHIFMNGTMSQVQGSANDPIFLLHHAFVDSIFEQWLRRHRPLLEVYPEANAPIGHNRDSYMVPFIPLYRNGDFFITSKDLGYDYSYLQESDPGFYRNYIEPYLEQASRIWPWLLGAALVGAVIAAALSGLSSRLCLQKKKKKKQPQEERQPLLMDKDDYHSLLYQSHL
Description: In order to establish reversibility of tyrosinase inhibition by the CMCs, we conducted a “recovery” study over a 2 day interval using the highest concentrations of the compounds which produced maximum tyrosinase activity inhibition without toxicity. B16F10 were plated in six-well plates at 3.5×10^4 cells/well and compounds were added (PC-10 μM, CMC2.14-10 μM, CMC2.5-20 μM, CMC2.23-25 μM and CMC2.24 at 20 μM) next day. Tyrosinase activity in one set of cultures after detachment and lysis as described herein was estimated after 2 day exposure while another set of cultures were continued with fresh media without the compounds to study reversibility of tyrosinase activity inhibition for another 2 days. Results are expressed as % tyrosinase activity for both 2 day exposure and 2 day recovery post 2 day exposure.

[2] = system: HEM-DP cells; experiment: Melanin content quantification in human epidermal melanocytes; type: cell-based; conditions: 48 hours
Description: Primary cultures of human epidermal melanocytes from a darkly pigmented donor were seeded at 2.2×10^5 cells/well in 1.5 ml media in 12-well plates and incubated for 48 hours. The test compounds were added to cultures and controls were treated with 0.16% DMSO, and further incubated for another 48 hours. For evaluation of melanin content, cells in the wells were trypsinized and cell pellets were washed in PBS. After aspiration, 250 μL of 1N NaOH was added and heated to 70° C. to solubilize melanin. The aliquots were then transferred to a 96-well plate and absorbance was read at 475 nm using microplate reader. A portion of the lysate was used to evaluate total protein content using […] bincinchonic acid (BCA) assay (Pierce BCA kit, Thermo Scientific). The absorbance of melanin was normalized to the total protein content for each lysate and reported as % of control.

[3] = target: T2, cellular tyrosinase in HEM-DP cells (Homo sapiens, UniProt P14679); experiment: Intracellular tyrosinase activity in human melanocytes; type: cell-based; conditions: 48 hours
T2 construct: endogenous in cells; host or cells: HEM-DP (primary human epidermal melanocytes, darkly pigmented donor)
T2 sequence (P14679 19-529): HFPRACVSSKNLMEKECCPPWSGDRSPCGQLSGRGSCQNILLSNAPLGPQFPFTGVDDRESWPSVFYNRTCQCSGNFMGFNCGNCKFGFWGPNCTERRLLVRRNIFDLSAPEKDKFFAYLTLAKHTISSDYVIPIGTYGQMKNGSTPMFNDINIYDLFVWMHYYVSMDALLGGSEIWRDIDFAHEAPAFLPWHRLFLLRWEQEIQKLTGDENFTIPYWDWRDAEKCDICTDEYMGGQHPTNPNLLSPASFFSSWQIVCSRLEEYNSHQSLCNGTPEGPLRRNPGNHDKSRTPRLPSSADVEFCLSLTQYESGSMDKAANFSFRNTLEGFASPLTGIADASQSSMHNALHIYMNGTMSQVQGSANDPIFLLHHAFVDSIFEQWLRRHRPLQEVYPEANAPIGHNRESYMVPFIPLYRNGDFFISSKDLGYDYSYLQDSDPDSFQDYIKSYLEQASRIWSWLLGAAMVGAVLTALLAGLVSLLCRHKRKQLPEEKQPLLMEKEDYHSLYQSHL
Description: We quantitated the cellular tyrosinase activity of human melanocytes based on established methods. Briefly, human epidermal melanocytes from a darkly pigmented donor (HEM-DP) were cultured in 12-well tissue culture plates at density of 1.5×10^5 cells/well. After 48 hrs. media was changed and test compounds were added, and further incubated for 48 hrs. At the end of treatments, cells were trypsinized and cell pellets were washed in PBS and lysed with lysis buffer under ice for 30 minutes and then centrifuged to remove cellular debris. 50 μl of lysates were then aliquoted in 96-well microplate and 150 μl of freshly prepared 3 mM L-DOPA was added. The absorbance was then measured kinetically at 475 nm every 30 seconds for 30 minutes at 30° C. using microplate reader (Versamax®). The % inhibition of tyrosinase activity was calculated by determining melanin formation rates from the linear range of the slopes of melanin formation over time for the different samples and calculating % inhibition from the measured velocities of melanin formation.

[4] = target: T3, intracellular tyrosinase in HEM-DP cells (Homo sapiens, UniProt P14679); experiment: Recovery study of intracellular tyrosinase activity in human melanocytes; type: cell-based
T3 construct: endogenous in cells; host or cells: HEM-DP (primary human epidermal melanocytes, darkly pigmented donor)
T3 sequence (P14679 19-529): T2 sequence (P14679 19-529)
Description: In order to study if the melanocytes could recover from inhibited tyrosinase activity after exposure to the CMCs, we employed a model for reversibility of inhibition of tyrosinase activity inhibition. This can establish safety of the compounds since irreversible inhibition of tyrosinase activity could damage melanocyte synthetic machinery with potential loss of the protective function of melanin. […] Briefly, HEM-DP were plated in 6-well plates at 2.3×10^5 cells/well and grown for 3 days and then CMCs were added. Tyrosinase activity was estimated after 2 day exposure in cellular lysates and another set of cultures were continued with fresh media without the compounds for further 5 days (with media change at day 3), in order to study reversibility of melanin inhibition.

[5] = system: B16F10 cells; experiment: Melanin content quantification in B16F10 cells; type: cell-based, mouse; conditions: for inhibition of melanin content / effect on melanin content (words): 48 hours; for effect on melanin content (words): B16F10, tested concentrations; for IC50: B16F10 cells exposed for 48 hours, non-linear curve fitting, read-out: IC50-Melanin Inhibition
Description: B16F10 cells were seeded at 1×10^5 cells/well in 1.5 ml media in 12-well plates and incubated for 24 hours. […] For quantification of melanin content, cells were trypsinized and cell pellets were washed in PBS. Cell pellets were also visually observed for lightening of the intracellular pigment. After aspiration, 250 μL of 1N NaOH was added and heated to 70° C. to solubilize melanin. The aliquots were then transferred to a 96-well plate and absorbance was read at 475 nm using a microplate reader. A portion of the lysate was used to evaluate total protein content using BCA assay. The melanin absorbance was normalized by total protein content and expressed as % of control.

[6] = system: HaCaT cells; conditions: HaCaT, 48 hours
Description: Briefly, 2×10^4 cells/well were seeded in 96-well plates and after 24 hours, the compounds at concentrations of 5-25 μM were added to the wells and incubated for 48 hours. Absorbance was read after 1 hour of incubation of plates and results were expressed as % of control.

COC(=O)C(C(=O)C=Cc1ccc(O)c(OC)c1)C(=O)C=Cc1ccc(O)c(OC)c1 (centres unmarked) [CMC2.5, 4-methoxycarbonyl curcumin]
tyrosinase activity after removal of compound ([1]; B16F10, 20 μM): completely recovered | reduction in melanin content ([2]; 20 μM): ~20% | inhibition of cellular tyrosinase activity ([3]; 20 μM): 16% | reduction of tyrosinase activity at the exposure time ([4]; 20 μM, 2 day exposure): 12%

COC(=O)C(C(=O)/C=C/c1ccc(O)cc1)C(=O)/C=C/c1ccc(O)cc1 [CMC2.14]
inhibition of melanin content ([5]; B16F10, 10 μM): 32.21% | effect on melanin content (words) [5]: moderate inhibition | IC50 [5]: 15.1 µM | loss of tyrosinase activity ([1]; B16F10, 10 μM, 2 day exposure): up to 75% | tyrosinase activity after removal of compound ([1]; B16F10, 10 μM): 100% | stimulation of cell proliferation ([6]; 5 μM): 23.2% | stimulation of cell proliferation ([6]; 10 μM): 15.5%

COc1cc(/C=C/C(=O)C(C(=O)/C=C/c2ccc(O)c(OC)c2)C(=O)Nc2ccccc2)ccc1O [CMC2.23]
inhibition of melanin content ([5]; B16F10, 25 μM): 46.4% | effect on melanin content (words) [5]: most potent inhibition | effect on melanin content (words) ([5]; listed as 2.23): moderate inhibition | IC50 [5]: 24.1 µM | reduction in melanin content ([2]; 10 μM): 20% | reduction in melanin content ([2]; 20 μM): 20% | inhibition of cellular tyrosinase activity ([3]; 5 μM): 25% | inhibition of cellular tyrosinase activity ([3]; 10 μM): 35% | inhibition of cellular tyrosinase activity ([3]; 20 μM): 49% | recovery of tyrosinase activity ([4]; 5 days after removal, CMC2.24 10 μM, CMC2.23 and CMC2.5 20 μM): partially recovered | stimulation of cell proliferation ([6]; 10 μM): 11.3% | stimulation of cell proliferation ([6]; 20 μM): 22.9%
